Assay results from PubChem BioAssay (NCI).
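Here, GI50 denotes the concentration required for 50% inhibition of growth. Definition used: TGI = concentration required for complete inhibition of growth.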

Assays:
Assay in all cases: NCI tumour cell line growth inhibition, 384-well format
NCI/ADR-RES ovarian = tested on: NCI/ADR-RES ovarian
786-0 renal = tested on: 786-0 renal
T-47D breast = tested on: T-47D breast
UO-31 renal = tested on: UO-31 renal
HOP-62 NSCLC = tested on: HOP-62 NSCLC
SN12C renal = tested on: SN12C renal
HCT-116 colon = tested on: HCT-116 colon
NCI-H322M lung = tested on: NCI-H322M lung
CAKI-1 renal = tested on: CAKI-1 renal
SK-MEL-5 melanoma = tested on: SK-MEL-5 melanoma
RXF 393 renal = tested on: RXF 393 renal
MCF7 breast = tested on: MCF7 breast
MDA-MB-468 breast = tested on: MDA-MB-468 breast
COLO 205 colon = tested on: COLO 205 colon
SNB-75 CNS = tested on: SNB-75 CNS
HL-60(TB) leukemia = tested on: HL-60(TB) leukemia
LOX IMVI melanoma = tested on: LOX IMVI melanoma
A549 NSCLC = tested on: A549 NSCLC
UACC-257 melanoma = tested on: UACC-257 melanoma
NCI-H460 NSCLC = tested on: NCI-H460 NSCLC
NCI-H226 lung = tested on: NCI-H226 lung
OVCAR-8 ovarian = tested on: OVCAR-8 ovarian
OVCAR-4 ovarian = tested on: OVCAR-4 ovarian
SK-MEL-28 melanoma = tested on: SK-MEL-28 melanoma
SF-539 CNS = tested on: SF-539 CNS
EKVX NSCLC = tested on: EKVX NSCLC
ACHN renal = tested on: ACHN renal
SF-295 CNS = tested on: SF-295 CNS
M14 melanoma = tested on: M14 melanoma
HCT-15 colon = tested on: HCT-15 colon
HT29 colon = tested on: HT29 colon
SW-620 colon = tested on: SW-620 colon
NCI-H23 lung = tested on: NCI-H23 lung
NCI-H522 lung = tested on: NCI-H522 lung
SF-268 CNS = tested on: SF-268 CNS
UACC-62 melanoma = tested on: UACC-62 melanoma
SNB-19 CNS = tested on: SNB-19 CNS
HS 578T breast = tested on: HS 578T breast
SK-OV-3 ovarian = tested on: SK-OV-3 ovarian
DU-145 prostate = tested on: DU-145 prostate
K-562 leukemia = tested on: K-562 leukemia
KM12 colon = tested on: KM12 colon
U251 glioblastoma = tested on: U251 glioblastoma
SR leukemia = tested on: SR leukemia
IGROV1 ovarian = tested on: IGROV1 ovarian
MOLT-4 leukemia = tested on: MOLT-4 leukemia
HOP-92 NSCLC = tested on: HOP-92 NSCLC
MDA-MB-231 breast = tested on: MDA-MB-231 breast
BT-549 breast = tested on: BT-549 breast
MDA-MB-435 melanoma = tested on: MDA-MB-435 melanoma
CCRF-CEM leukemia = tested on: CCRF-CEM leukemia
OVCAR-3 ovarian = tested on: OVCAR-3 ovarian
A498 renal = tested on: A498 renal
PC-3 prostate = tested on: PC-3 prostate
TK-10 renal = tested on: TK-10 renal
RPMI-8226 leukemia = tested on: RPMI-8226 leukemia
HCC-2998 colon = tested on: HCC-2998 colon
MALME-3M melanoma = tested on: MALME-3M melanoma

## O=C(O)CSc1cc(NS(=O)(=O)c2ccc(Br)cc2)c2ccccc2c1O
NCI/ADR-RES ovarian
  GI50: 2.22 µM
  TGI: 4.79 µM
786-0 renal
  GI50: 6.17 µM
  TGI: 18.3 µM
T-47D breast
  GI50: 2.61 µM
  TGI: 5.11 µM
UO-31 renal
  GI50: 2.05 µM
  TGI: 3.91 µM
HOP-62 NSCLC
  GI50: 3.02 µM
  TGI: 8.45 µM
SN12C renal
  GI50: 2.03 µM
  TGI: 3.64 µM
HCT-116 colon
  GI50: 2.19 µM
  TGI: 4.15 µM
NCI-H322M lung
  GI50: 16.2 µM
  TGI: 29.7 µM
CAKI-1 renal
  GI50: 10.9 µM
  TGI: 22.8 µM
SK-MEL-5 melanoma
  GI50: 1.98 µM
  TGI: 3.52 µM
RXF 393 renal
  GI50: 1.75 µM
  TGI: 3.44 µM
MCF7 breast
  GI50: 1.62 µM
  TGI: 3.15 µM
MDA-MB-468 breast
  GI50: 1.39 µM
  TGI: 2.7 µM
COLO 205 colon
  GI50: 3.12 µM
  TGI: 9.58 µM
SNB-75 CNS
  GI50: 2.19 µM
  TGI: 4.5 µM
HL-60(TB) leukemia
  GI50: 1.82 µM
  TGI: 3.22 µM
LOX IMVI melanoma
  GI50: 1.79 µM
  TGI: 3.26 µM
A549 NSCLC
  GI50: 11.6 µM
  TGI: 23.8 µM
UACC-257 melanoma
  GI50: 1.65 µM
  TGI: 3.03 µM
NCI-H460 NSCLC
  GI50: 13.5 µM
  TGI: 26.3 µM
NCI-H226 lung
  GI50: 6.7 µM
  TGI: 18.5 µM
OVCAR-8 ovarian
  GI50: 1.92 µM
  TGI: 3.97 µM
OVCAR-4 ovarian
  GI50: 1.73 µM
  TGI: 3.12 µM
SK-MEL-28 melanoma
  GI50: 2.25 µM
  TGI: 4.05 µM
SF-539 CNS
  GI50: 2.2 µM
  TGI: 3.72 µM
EKVX NSCLC
  GI50: 1.92 µM
  TGI: 3.63 µM
ACHN renal
  GI50: 4.15 µM
  TGI: 13.6 µM
SF-295 CNS
  GI50: 6.61 µM
  TGI: 19 µM
M14 melanoma
  GI50: 3.11 µM
  TGI: 7.41 µM
HCT-15 colon
  GI50: 10.6 µM
  TGI: 22.4 µM
HT29 colon
  GI50: 3.94 µM
  TGI: 11.9 µM
SW-620 colon
  GI50: 2.42 µM
  TGI: 6.09 µM
NCI-H23 lung
  GI50: 1.82 µM
  TGI: 3.94 µM
NCI-H522 lung
  GI50: 7.47 µM
  TGI: 20 µM
SF-268 CNS
  GI50: 2.4 µM
  TGI: 6.02 µM
UACC-62 melanoma
  GI50: 1.91 µM
  TGI: 3.33 µM
SNB-19 CNS
  GI50: 5.03 µM
  TGI: 15.4 µM
HS 578T breast
  GI50: 1.63 µM
  TGI: 3.04 µM
SK-OV-3 ovarian
  GI50: 5.22 µM
  TGI: 16.6 µM
DU-145 prostate
  GI50: 2.37 µM
  TGI: 5.24 µM
K-562 leukemia
  GI50: 1.39 µM
  TGI: 2.71 µM
KM12 colon
  GI50: 4.91 µM
  TGI: 16.2 µM
U251 glioblastoma
  GI50: 2.55 µM
  TGI: 6.16 µM
SR leukemia
  GI50: 2.6 µM
  TGI: 4.08 µM
IGROV1 ovarian
  GI50: 2.69 µM
  TGI: 6.51 µM
MOLT-4 leukemia
  GI50: 1.96 µM
  TGI: 3.39 µM
HOP-92 NSCLC
  GI50: 2.24 µM
  TGI: 4.57 µM
MDA-MB-231 breast
  GI50: 1.89 µM
  TGI: 3.72 µM
BT-549 breast
  GI50: 2.93 µM
  TGI: 7.45 µM
MDA-MB-435 melanoma
  GI50: 2 µM
  TGI: 3.43 µM
CCRF-CEM leukemia
  GI50: 2.02 µM
  TGI: 3.45 µM
OVCAR-3 ovarian
  GI50: 0.404 µM
  TGI: 1.69 µM
A498 renal
  GI50: 16.9 µM
  TGI: 30.6 µM
PC-3 prostate
  GI50: 2.38 µM
  TGI: 5.77 µM
TK-10 renal
  GI50: 14.2 µM
  TGI: 27.2 µM
RPMI-8226 leukemia
  GI50: 1.63 µM
  TGI: 3.37 µM
HCC-2998 colon
  GI50: 11.7 µM
  TGI: 23.9 µM
MALME-3M melanoma
  GI50: 1.95 µM
  TGI: 3.38 µM
